{"source": "patent US11104703B2", "about": "“Binding compound and uses thereof” (priority 2016, dated 2021)", "key": {"Thrombin": {"molecular_target": "Thrombin (Homo sapiens, UniProt P00734)", "protocol": "(§1) The ability of compounds of the invention to inhibit the activities of a range of commercially sourced proteases was assessed using steady state fluorogenic substrate assays. […] Assays were carried out in PBS, pH 7.4, at 37° C., in the presence of varying concentrations of inhibitor (10-50 μM) and a fixed concentration of substrate (50 μM). […] In this mechanism, the inhibitor I, binds the target protease to form an initial reversible complex EI, characterised by the inhibitor constant Ki. This is followed by the formation of an irreversible complex E-I from EI, characterised by the first-order rate constant k3."}, "Trypsin": {"molecular_target": "Trypsin", "settings": "for Ki / k3 / k3/Ki: Trypsin; for Ki: PBS pH 7.4, 37° C., Cbz-Gly-Gly-Arg-NHMec 50 μM; for Ki / k3/Ki: Mean (±SD); for k3: first-order rate constant, mean; for k3/Ki: overall second-order rate constant; for over all second-order rate constant: trypsin", "protocol": "as §1"}, "ENaC": {"system": "ENaC", "type": "cell-based", "protocol": "All determinations were conducted using a TECC24 semiautomated system. Unlike the traditional Ussing chamber assays, where the short circuit current (ISC) is measured as an index of CFTR correction, the TECC-24 assay measures the equivalent current (IEQ)."}, "Chymotrypsin": {"system": "Chymotrypsin", "assay": "Steady state fluorogenic substrate assay, inactivation of chymotrypsin", "settings": "for k3: mean; for second-order rate constant: chymotrypsin", "protocol": "as §1"}, "Matriptase": {"molecular_target": "Matriptase (Homo sapiens, UniProt Q9Y5Y6)", "sequence (Q9Y5Y6 whole entry, species assumed)": "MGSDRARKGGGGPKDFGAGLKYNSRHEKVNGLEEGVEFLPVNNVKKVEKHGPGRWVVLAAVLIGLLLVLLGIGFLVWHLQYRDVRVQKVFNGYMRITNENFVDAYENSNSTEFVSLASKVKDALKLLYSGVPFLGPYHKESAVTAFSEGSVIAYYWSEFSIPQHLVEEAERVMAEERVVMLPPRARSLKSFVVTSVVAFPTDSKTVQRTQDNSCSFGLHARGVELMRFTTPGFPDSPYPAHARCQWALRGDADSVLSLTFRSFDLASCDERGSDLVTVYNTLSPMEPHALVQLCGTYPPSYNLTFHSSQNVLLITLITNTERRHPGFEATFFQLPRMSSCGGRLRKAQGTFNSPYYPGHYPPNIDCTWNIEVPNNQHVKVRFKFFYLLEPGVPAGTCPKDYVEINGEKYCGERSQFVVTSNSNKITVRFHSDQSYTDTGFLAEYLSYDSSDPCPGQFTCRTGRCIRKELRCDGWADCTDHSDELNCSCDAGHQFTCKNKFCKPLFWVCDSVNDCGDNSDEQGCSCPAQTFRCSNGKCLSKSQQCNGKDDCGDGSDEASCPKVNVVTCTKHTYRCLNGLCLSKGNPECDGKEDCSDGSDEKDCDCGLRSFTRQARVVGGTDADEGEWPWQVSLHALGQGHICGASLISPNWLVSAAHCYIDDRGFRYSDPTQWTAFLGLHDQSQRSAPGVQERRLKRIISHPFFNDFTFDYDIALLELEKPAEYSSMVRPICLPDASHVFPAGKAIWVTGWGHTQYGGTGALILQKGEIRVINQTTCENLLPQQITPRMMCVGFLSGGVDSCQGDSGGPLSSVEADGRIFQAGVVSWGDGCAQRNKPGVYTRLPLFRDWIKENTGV", "settings": "for k3/Ki: Mean (±SD); for k3: mean", "protocol": "as §1"}, "[1]": {"system": "primary CF Airway Epithelial Cells (AECs)", "settings": "50 μM, 24 hours, n=3, vehicle control 3.5", "protocol": "Mucociliary clearance was quantified by measuring the velocity of microbeads apically applied to differentiated primary CF Airway Epithelial Cells (AECs). Compounds (50 μM) were added to the apical surface of primary CF AECs for a period of 24 hours. Mucociliary flow was then determined by tracking and measuring the velocity of apically applied microbeads across the CF AEC surface."}, "[2]": {"system": "endogenous protease activities in CF sputum sol", "settings": "CF sputum sol from 8 individual CF patients; Boc-Gln-Ala-Arg-AMC 50 μM", "protocol": "(§2) Inhibition of endogenous protease activities in CF sputum sol, was conducted as for Example 8 but in the presence of Boc-Gln-Ala-Arg-AMC (50 μM) as substrate. The rate of hydrolysis of the substrate at 37° C. was monitored and residual activity determined."}, "[3]": {"system": "primary human airway epithelial (HAE) cell cultures", "settings": "10 μM, Boc-QAR-AMC 50 μM, 37° C.", "protocol": "as §2"}, "[4]": {"molecular_target": "Human Airways Trypsin-like protease (HAT) (Homo sapiens, UniProt O60235)", "sequence (O60235 whole entry)": "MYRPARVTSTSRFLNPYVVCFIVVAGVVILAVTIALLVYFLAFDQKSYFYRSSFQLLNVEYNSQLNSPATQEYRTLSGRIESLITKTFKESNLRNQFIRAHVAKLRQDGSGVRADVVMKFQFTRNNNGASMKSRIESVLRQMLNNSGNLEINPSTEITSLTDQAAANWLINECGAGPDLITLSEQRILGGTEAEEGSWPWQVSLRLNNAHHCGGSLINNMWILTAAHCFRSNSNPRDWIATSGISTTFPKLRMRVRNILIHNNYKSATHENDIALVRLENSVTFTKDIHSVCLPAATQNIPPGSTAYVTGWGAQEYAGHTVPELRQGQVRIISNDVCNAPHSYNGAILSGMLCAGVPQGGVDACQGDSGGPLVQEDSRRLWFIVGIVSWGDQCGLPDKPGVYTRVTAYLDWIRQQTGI", "settings": "for k3/Ki: Mean (±SD); for k3: mean", "protocol": "as §1"}, "[5]": {"system": "trypsin-like serine proteases in CF Sol", "settings": "10 μM; pooled CF sputum sol diluted ×4; substrate Cbz-Gly-Gly-Arg-AMC; 37° C.", "protocol": "Briefly, the spectrofluorimetic analysis was conducted on a sample of pooled supernatant recovered by centrifugation from expectorated cystic fibrosis sputum, which had been diluted ×4 with phosphate-buffered saline (sputum sol). […] The rate of hydrolysis of the substrate at 37° C. was monitored and inhibition as a % of an untreated control calculated."}, "Plasmin": {"molecular_target": "Plasmin (Homo sapiens, UniProt P00747)", "sequence (P00747 97-810, species assumed)": "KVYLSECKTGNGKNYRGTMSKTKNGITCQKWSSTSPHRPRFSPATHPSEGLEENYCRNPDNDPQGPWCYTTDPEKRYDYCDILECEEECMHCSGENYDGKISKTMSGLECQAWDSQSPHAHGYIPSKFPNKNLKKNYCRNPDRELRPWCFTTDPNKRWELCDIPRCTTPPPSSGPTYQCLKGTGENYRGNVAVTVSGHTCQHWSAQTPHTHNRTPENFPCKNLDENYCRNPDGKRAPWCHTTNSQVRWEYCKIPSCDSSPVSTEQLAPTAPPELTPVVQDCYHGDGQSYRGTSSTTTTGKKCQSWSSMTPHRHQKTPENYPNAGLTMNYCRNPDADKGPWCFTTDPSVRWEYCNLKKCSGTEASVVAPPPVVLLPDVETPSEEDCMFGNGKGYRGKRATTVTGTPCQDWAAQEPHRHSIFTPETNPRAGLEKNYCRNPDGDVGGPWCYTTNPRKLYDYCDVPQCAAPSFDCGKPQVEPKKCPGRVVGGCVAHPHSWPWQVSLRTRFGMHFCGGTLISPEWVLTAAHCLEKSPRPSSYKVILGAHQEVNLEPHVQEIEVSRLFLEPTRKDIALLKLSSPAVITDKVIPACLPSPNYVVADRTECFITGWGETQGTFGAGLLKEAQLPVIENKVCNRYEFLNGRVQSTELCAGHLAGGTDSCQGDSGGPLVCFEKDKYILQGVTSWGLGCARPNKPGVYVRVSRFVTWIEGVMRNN", "assay": "Steady state fluorogenic substrate assay, inactivation of plasmin", "protocol": "as §1"}}, "note": "Numbered stars: 1 amine (or outer) side, 2 acyl side, 3 side chain; on linkers, the order of the positions; unused ones are H or OH. Square brackets hold non-standard residues; d marks the D form. Side chains are listed from the residue outwards. Peptide text beside a SMILES is read from it. * marks the point of attachment. Biotin = O=C1N[C@H]2[C@H](CS[C@H]2CCCCC(=O)*)N1; Gly(N-(CH2)3-guanidino) = N=C(N)NCCCNCC(=O)O; Glutaryl = O=C(CCCC(=O)[*:2])[*:1]; X2 = O=C(Oc1c(F)c(F)c(F)c(F)c1F)*; X1 = O=C1CCC(=O)N1OC(=O)*; X3 = C#Cc1cccc(N*)c1; Ahx = NCCCCCC(=O)O"}
{"compound": "Biotin-PEG-NH—(N-benzyl-glycyl)-(D)-phenylalanyl-N-(n-guanidino-propyl)-glycine succinimidyl carbamate [NAT988]", "values": [{"measurement": "k3/Ki", "setting": "Thrombin; Mean (±SD)", "value": "4.7 (± 1.1) × 10^5 M^−1 min^−1"}, {"measurement": "k3", "setting": "Thrombin; mean", "value": 0.4, "unit": "min⁻¹"}]}
{"compound": "N=C(N)NCCCN(CC(=O)NCC(=O)NCC(=O)NCCCCCC(=O)N[C@@H](CCCCNC(=O)CCCC[C@@H]1SC[C@@H]2NC(=O)N[C@@H]21)C(=O)O)C(=O)Oc1c(F)c(F)c(F)c(F)c1F", "note": "[NAP966, HO-Lys(biotin)-Ahx-Gly-Gly-N-(n-guanidino-propyl)-glycine pentafluorophenyl carbamate] (X2-[Gly(N-(CH2)3-guanidino)]GG[Ahx]K(Biotin)-OH)", "values": [{"measurement": "Ki", "setting": "Trypsin", "value": 2100, "unit": "nM"}, {"measurement": "k3", "setting": "Trypsin", "value": 0.4, "unit": "min⁻¹"}, {"measurement": "k3/Ki", "setting": "Trypsin", "value": "1.9 (±0.25) × 10^5 M^−1 min^−1"}]}
{"compound": "N=C(N)NC(=O)c1nc(Cl)c(N)nc1N", "note": "[amiloride, reference compound]", "values": [{"measurement": "inhibition of the observable current", "setting": "ENaC; 10 μM, added to terminate the experiment, ENaC-expressing FRT cells", "value": "> 95", "unit": "%"}]}
{"compound": "N=C(N)NCCCN(CC(=O)NCC(=O)NCC(=O)NCCCCCC(=O)N[C@@H](CCCCNC(=O)CCCC[C@@H]1SC[C@@H]2NC(=O)N[C@@H]21)C(=O)O)C(=O)ON1C(=O)CCC1=O", "note": "[NAP897, HO-Lys(Biotin)-Ahx-Gly-Gly-N-(n-guanidino-propyl)-glycine succinimidyl carbamate] (X1-[Gly(N-(CH2)3-guanidino)]GG[Ahx]K(Biotin)-OH)", "values": [{"measurement": "Ki", "setting": "Trypsin", "value": 660, "unit": "nM"}, {"measurement": "k3", "setting": "Trypsin", "value": 0.7, "unit": "min⁻¹"}, {"measurement": "k3/Ki", "setting": "Trypsin", "value": "1.3 (±0.4) × 10^6 M^−1 min^−1"}]}
{"compound": "Biotin-PEG-NH—(N-methyl glycyl)-(N-methyl glycyl)-N-(benzyl)-glycine succinimidyl carbamate [CG877]", "values": [{"measurement": "k3", "setting": "Chymotrypsin; Chymotrypsin", "value": 0.7, "unit": "min⁻¹"}, {"measurement": "second-order rate constant", "setting": "Chymotrypsin", "value": "2.46 (±0.214)×10^5 M^−1·min^−1"}]}
{"compound": "Biotin-PEG-NH-Gly-Gly-N-(n-guanidino-propyl)-glycine succinimidyl carbamate [NAP858]", "values": [{"measurement": "k3/Ki", "setting": "Matriptase", "value": "1.30 (±0.943) × 10^6 M^−1 min^−1"}, {"measurement": "k3", "setting": "Matriptase", "value": 0.314, "unit": "min⁻¹"}, {"measurement": "mucociliary clearance (velocity of apically applied microbeads)", "setting": "[1]", "value": 6.83, "unit": "μm/s"}, {"measurement": "ENaC activity (reduction of current)", "setting": "ENaC; 50 μM, primary CF cultures, over a 90 minute period", "value": 36, "unit": "μA/cm2"}, {"measurement": "inhibition of endogenous protease activity, residual activity compared with QUB-TL1", "setting": "[2]", "value": "superior to QUB-TL1"}, {"measurement": "Ki", "setting": "Trypsin", "value": 486, "unit": "nM"}, {"measurement": "k3", "setting": "Trypsin", "value": 0.299, "unit": "min⁻¹"}, {"measurement": "k3/Ki", "setting": "Trypsin", "value": "1.95 (±2.62) × 10^6 M^−1 min^−1"}, {"measurement": "over all second-order rate constant", "setting": "Trypsin", "value": "2.60 (±0.884)×10^6 M^−1·min^−1"}, {"measurement": "extracellular tryptic activity", "setting": "[3]", "value": "reduced extracellular tryptic activity to a similar degree as that of QUB-TL1"}, {"measurement": "k3/Ki", "setting": "[4]", "value": "1.50 (±1.76) × 10^6 M^−1 min^−1"}, {"measurement": "k3", "setting": "[4]", "value": 0.464, "unit": "min⁻¹"}, {"measurement": "inhibition of hydrolytic action of trypsin-like serine proteases in CF Sol", "setting": "[5]", "value": "complete inhibition"}]}
{"compound": "C#Cc1cccc(NC(=O)CCCC(=O)NCCCC[C@H](NC(=O)CCCCCNC(=O)CNC(=O)CNC(=O)CN(CCCNC(=N)N)C(=O)ON2C(=O)CCC2=O)C(=O)O)c1", "note": "[NAP884, N-6-(1-acetylene-3-amino-phenyl)-di-carboxy-pentane-Lys-NH-Ahx-Gly-Gly-N-(n-guanidino-propyl)-glycine succinimidyl carbamate] (X1-[Gly(N-(CH2)3-guanidino)]GG[Ahx]K([Glutaryl-X3])-OH)", "values": [{"measurement": "Ki", "setting": "Trypsin", "value": 420, "unit": "nM"}, {"measurement": "k3", "setting": "Trypsin", "value": 0.528, "unit": "min⁻¹"}, {"measurement": "k3/Ki", "setting": "Trypsin", "value": "1.34 (±0.351) × 10^6 M^−1 min^−1"}]}
{"compound": "Biotin-PEG-NH-Gly-Gly-N-(n-amino-butyl)-glycine succinimidyl carbamate [NKP830]", "values": [{"measurement": "Ki", "setting": "Trypsin", "value": 220, "unit": "nM"}, {"measurement": "k3", "setting": "Trypsin", "value": 0.5, "unit": "min⁻¹"}, {"measurement": "k3/Ki", "setting": "Trypsin", "value": "2.7 (±0.5) × 10^6 M^−1 min^−1"}, {"measurement": "over all second-order rate constant", "setting": "Trypsin", "value": "2.74 (±0.547)×10^6 M^−1·min^−1"}, {"measurement": "Ki", "setting": "Plasmin; Boc-Val-Leu-Lys-NHMec 50 μM, Mean (±SD)", "value": 7200, "unit": "nM"}, {"measurement": "k3/Ki", "setting": "Plasmin; Mean (±SD)", "value": "6.2 (±0.9) × 10^4 M^−1 min^−1"}, {"measurement": "k3", "setting": "Plasmin; mean", "value": 0.4, "unit": "min⁻¹"}]}
{"compound": "Biotin-PEG-NH-Gly-Gly-N-(benzyl)-glycine succinimidyl carbamate [NFP849]", "values": [{"measurement": "k3/Ki", "setting": "Chymotrypsin; Chymotrypsin, Mean (±SD)", "value": "1.3 (±0.4) × 10^6 M^−1 min^−1"}, {"measurement": "Ki", "setting": "Chymotrypsin; Chymotrypsin, Suc-Ala-Ala-Pro-Phe-NHMec 50 μM, Mean (±SD)", "value": 890, "unit": "nM"}, {"measurement": "k3", "setting": "Chymotrypsin; Chymotrypsin", "value": 0.8, "unit": "min⁻¹"}, {"measurement": "second-order rate constant", "setting": "Chymotrypsin", "value": "1.28 (±0.442)×10^6 M^−1·min^−1"}]}
{"compound": "Biotin-PEG-NH—N-(n-guanidino-propyl)-glycine-Gln-Sar-N-(n-guanidino-propyl)-glycine succinimidyl carbamate [NAP1099]", "values": [{"measurement": "k3/Ki", "setting": "Matriptase", "value": "8.52 (±9.05) × 10^6 M^−1 min^−1"}, {"measurement": "k3", "setting": "Matriptase", "value": 0.302, "unit": "min⁻¹"}, {"measurement": "inhibition of endogenous protease activity, residual activity compared with QUB-TL1", "setting": "[2]", "value": "superior to QUB-TL1"}, {"measurement": "k3", "setting": "Trypsin", "value": 0.354, "unit": "min⁻¹"}, {"measurement": "k3/Ki", "setting": "Trypsin", "value": "3.80 (±3.16) × 10^6 M^−1 min^−1"}, {"measurement": "extracellular tryptic activity", "setting": "[3]", "value": "reduced extracellular tryptic activity to a similar degree as that of QUB-TL1"}, {"measurement": "k3/Ki", "setting": "[4]", "value": "3.71 (±2.89) × 10^6 M^−1 min^−1"}, {"measurement": "k3", "setting": "[4]", "value": 0.474, "unit": "min⁻¹"}]}
